We go through six compounds from ChEMBL document CHEMBL5352500, “HSF1 Pathway Inhibitor Clinical Candidate (CCT361814/NXP800) Developed from a Phenotypic Screen as a Potential Treatment for Refractory Ovarian Cancer and Other Malignancies” (J Med Chem, 2023).

The structures appear in SMILES notation. The source made the active and inactive calls. No cut-off for these calls is given here.

The test system of one data set is IGROV-1. Put plainly: Antiproliferative activity against human IGROV-1 cells assessed as cell growth inhibition measured after 96 hrs by resazurin dye based celltiter-blue viability assay. In kind it is functional. For orientation: Alamar Blue is a resazurin reagent that responds to reducing activity.
A further data set relates to OVCAR-3. Put plainly: Antiproliferative activity against human OVCAR-3 cells assessed as cell growth inhibition measured after 96 hrs by resazurin dye based celltiter-blue viability assay. It counts as functional.
Another data set concerns OVCAR-5. Put plainly: Antiproliferative activity against human OVCAR-5 cells assessed as cell growth inhibition measured after 96 hrs by resazurin dye based celltiter-blue viability assay. In kind it is functional.
A further data set has as its system OVCAR-8. The data set can be described thus: Antiproliferative activity against human OVCAR-8 cells assessed as cell growth inhibition measured after 96 hrs by resazurin dye based celltiter-blue viability assay. In kind it is functional.
A further data set deals with Caov-3 cell line. The data set can be described thus: Antiproliferative activity against human Caov-3 cells assessed as cell growth inhibition measured after 96 hrs by resazurin dye based celltiter-blue viability assay. It counts as functional.
The test system of the next data set is PA-1. The data set can be described thus: Antiproliferative activity against human PA-1 cells assessed as cell growth inhibition measured after 96 hrs by resazurin dye based celltiter-blue viability assay. In kind it is functional.
For the next data set, the system named is CH1. Put plainly: Antiproliferative activity against human CH1 cells assessed as cell growth inhibition measured after 96 hrs by resazurin dye based celltiter-blue viability assay. In kind it is functional.
Another data set has as its system RMG-I. The data set can be described thus: Antiproliferative activity against human RMG-I cell line assessed as cell growth inhibition measured after 96 hrs by resazurin dye based celltiter-blue viability assay. In kind it is functional.
Data set [1] can be described thus: Stability in pooled mouse plasma assessed as drug degradation at 1 uM. It counts as ADME, cell-free.
The nature of a further data set: physchem. The conditions noted are these: buffer, pH 7.4.
Data set [2] in a line: Unbound AUC (0 to 6 hrs) in BALB/c mouse at 5 mg/kg, po or 5 mg/kg, iv measured for 24 hrs by LC-MS/MS analysis. It counts as ADME, organism-based. The conditions noted are these: in vivo.
For another data set, the species on record is Mus musculus. The settings on record: dose 50.0 mg/kg, route po.
The nature of data set [3]: Reversal of doxorubicin resistance in human doxorubicin resistant CH1 cells assessed as doxorubicin GI50 incubated for 96 hrs by resazurin dye based celltiter-blue cell viability assay (reference value: 310 nM). It counts as functional.
Data set [4] can be described thus: AUC (0 to 6 hrs) in BALB/c mouse at 5 mg/kg, po measured for 24 hrs by LC-ESI-MS/MS analysis. It counts as ADME, organism-based. Also noted: time 24 hrs, dose 5 mg/kg, route po. The settings on record: in vivo.
Data set [5] is described as follows: Fraction unbound in BALB/c mouse blood at 5 mg/kg, po or 5 mg/kg, iv measured for 24 hrs by LC-MS/MS analysis. In kind it is ADME, organism-based.
The nature of data set [6]: Unbound AUC (0 to 6 hrs) in BALB/c mouse at 5 mg/kg, po or 1 mg/kg, iv measured for 24 hrs by LC-MS/MS analysis. It counts as ADME, organism-based. The conditions noted are these: in vivo.

For the compound `Cc1ccc(NC(=O)c2ccc3c(c2)OCCO3)cc1NC(=O)c1ccc2nc(OCCN3CCCC3)ccc2c1`, the GI50 in the data set with IGROV-1, in the data set with OVCAR-3, in the data set with OVCAR-5, in the data set with OVCAR-8, in the data set with Caov-3 cell line and in the data set with PA-1 was 50.1 nM each time. The GI50 with CH1 and in the data set on RMG-I was 50.1 nM in each case. The Stability result in [1] is given as “Stable”. In “physchem”, the logD (usually the decadic logarithm of the distribution of all forms, ionised or not, between an organic phase and buffer at a given pH) came to 2.1.
`Cc1ccc(NC(=O)c2ccc3c(c2)OCCO3)cc1NC(=O)c1ccc2nc(OCCN3CCCCC3)ccc2c1`: the fAUC in data set [2] is 0.012 µM·h.
In the case of `CCN1CCN(Cc2ccc3cc(C(=O)Nc4cc(NC(=O)c5ccc6c(c5)OCCO6)ccc4F)ccc3n2)CC1`, in the data set listed under Mus musculus, the inhibition entry was “Active”.
As to `COc1ccc(CCN(C)CCCC(C#N)(c2ccc(OC)c(OC)c2)C(C)C)cc1OC` (configuration not stated), the GI50 (commonly the concentration at which growth is held to half of that of the control) in [3] came to 1.9 nM.
Turning to `CCN1CCN(Cc2ccc3cc(C(=O)Nc4cc(NC(=O)c5ccc6c(c5)OCCO6)ccc4Cl)ccc3n2)CC1`, the AUC (commonly the area under the concentration-time curve, a measure of exposure) in data set [4] is 3.9 µM·h. The fraction unbound – broadly, free concentration divided by total concentration – at 24 h in data set [5] was determined as 0.005. The fAUC in data set [2] stood at 0.02 µM·h.
In turn, `CC(C)N1CCN(Cc2ccc3cc(C(=O)Nc4cc(NC(=O)c5ccc6c(c5)OCCO6)ccc4Cl)ccc3n2)CC1` displayed a fAUC in data set [6] of 0.026 µM·h.
